Measured values from patent publication US20240018147A1, “SALT OF COMPOUND FOR DEGRADING BTK, CRYSTAL FORM THEREOF, AND USE THEREOF IN MEDICINE” (HAISCO PHARMACEUTICALS PTE. LTD., priority 2020, published 2024).
≈ marks a conversion by molar mass, not a printed value.

Legend:
[1] = Crystal slurrying competition experiment of crystal forms; type: physicochemical; conditions: room temperature; for relative stability of crystal forms from competition experiments: conclusion in words
Experimental: 6.2. Competitive experiments of crystal forms I, II and III of compound 1 were performed at room temperature to investigate the stability of the crystal forms in isopropyl acetate and a water/acetonitrile (v/v=1:1) solvent, and Competitive experiments of the crystal forms I and II of compound 3 were performed at room temperature to investigate the stability of the crystal forms in an ethanol/water (v/v=1:1) solvent and an acetone/water (v/v=1:1) solvent.

[2] = Solubility in water at 25° C.; type: physicochemical
Experimental: 7. Solubility Data in Water at 25° C.

[3] = Pharmacokinetic test of dogs; type: in vivo; conditions: Beagle dogs; for Having bioavailability or not / AUC(0-t): i.g. (10 mg/kg); for AUC(0-t): male, dog, po, plasma
Experimental: Experimental objective: in this experiment, a single dose of each test compound was administered to Beagle dogs intravenously and intragastrically, the concentrations of the test compounds in plasma of dogs were measured, and the pharmacokinetic characteristics and bioavailability of the test compounds in dogs were evaluated.
Experimental animal: male Beagle dogs (about 8-11 kg, […], 6 dogs/compound), purchased from Beijing Marshall Biotechnology Co. Ltd.
The animals were fasted but with water available for 14 to 18 hours one day before administration, and were fed 4 hours after administration.
Sampling: before and after administration, 1.0 ml of blood was taken from jugular veins, and placed in an EDTAK2 centrifuge tube. Centrifugation was carried out at 5000 rpm at 4° C. for 10 m, and the plasma was collected.
Time points for plasma collection in G1& G2 groups: 0, 5 min, 15 min, 30 mi 1 h, 2 h, 4 h, 6 h, 8 h, 10 h, […] and 24 h.
Before analysis and detection, all samples were stored at −80° C. The samples were detected by using HPLC-MS/MS.

[4] = Chemical stability at high temperature (40° C.) and high humidity (RH 92.5%), purity by HPLC; type: physicochemical; conditions: for Purity by HPLC, 0 day: 0 day (initial); for chemical stability: 40° C. and RH 92.5%, purity by HPLC, conclusion in words; for Purity by HPLC, 92.5% RH 30 days: high humidity 92.5% RH; for Purity by HPLC, 40° C. 30 days: high temperature 40° C.
Experimental: Samples were taken and tested at high temperature (40° C.) and under high humidity (RH 92.5%) respectively. The purity (represented by a percentage) was detected by HPLC.
With regard to methods for preparing test solutions and conditions for detecting purity by HPLC, reference was made to Tables 13, 14 and 15.

[5] = Stability of crystal form of compound 1 and compound 3 (XRD); type: physicochemical; conditions: conclusion in words
From the text: 6.1. Stability of crystal form of compound 1 and compound 3.

[6] = listed as Crystal form III of compound 1
[7] = listed as Amorphous form of compound 1

chemical stability [4] | improvement of solubility as compared with compound 1 [2] | solubility [2] [µg/mL] | Having bioavailability or not [3] | increase of oral exposure amount as compared with compound 1 [3] | AUC(0-t) [3] [ng·h/mL] | Compound | further results
relatively good chemical stability | more than 15 times | 172 | Yes | more than 2 times | 75.1 ± 50 | Nc1ncnc2c1c(-c1ccc(Oc3ccccc3)cc1)nn2C1CCN(C2CN(C3CN(c4ccc5c(c4)C(=O)N(C4CCC(=O)NC4=O)C5=O)C3)C2)CC1.O=C(O)/C=C\C(=O)O.O=C(O)/C=C\C(=O)O (stereo not shown) [crystal form I of compound 3, 5-[3-[3-[4-[4-amino-3-(4-phenoxyphenyl)pyrazolo[3,4-d]pyrimidin-1-yl]-1-piperidyl]azetidin-1-yl]azetidin-1-yl]-2-(2,6-dioxo-3-piperidyl)isoindoline-1,3-dione dimaleate] | Purity by HPLC, 0 day [4]: 99.85%; Purity by HPLC, 92.5% RH 30 days [4]: 99.76%; Purity by HPLC, 40° C. 30 days [4]: 99.74%; relative stability of crystal forms from competition experiments [1]: most stable crystal form
relatively good chemical stability | – | 9 (≈ 12 µM) | Yes | – | 26.9 ± 3.3 | Nc1ncnc2c1c(-c1ccc(Oc3ccccc3)cc1)nn2C1CCN(C2CN(C3CN(c4ccc5c(c4)C(=O)N(C4CCC(=O)NC4=O)C5=O)C3)C2)CC1 (stereo not shown) [amorphous form of compound 1, 5-[3-[3-[4-[4-amino-3-(4-phenoxyphenyl)pyrazolo[3,4-d]pyrimidin-1-yl]-1-piperidyl]azetidin-1-yl]azetidin-1-yl]-2-(2,6-dioxo-3-piperidyl)isoindoline-1,3-dione] | Purity by HPLC, 0 day [4, 7]: 98.88%; Purity by HPLC, 92.5% RH 30 days [4, 7]: 98.82%; Purity by HPLC, 40° C. 30 days [4, 7]: 98.85%; stability of crystal form [5]: relatively good stability

The remaining lines, values behind:

Compound | chemical stability [4] | improvement of solubility as compared with compound 1 [2] | solubility [2] [µg/mL] | Having bioavailability or not [3] | increase of oral exposure amount as compared with compound 1 [3] | AUC(0-t) [3] [ng·h/mL] | further results
Nc1ncnc2c1c(-c1ccc(Oc3ccccc3)cc1)nn2C1CCN(C2CN(C3CN(c4ccc5c(c4)C(=O)N(C4CCC(=O)NC4=O)C5=O)C3)C2)CC1.O=C(O)/C=C\C(=O)O.O=C(O)/C=C\C(=O)O (stereo not shown) | – | – | – | – | – | – | Experimental XRD result after crystal slurrying competition ([1]; acetone/water (v/v = 1:1), 3 days): Crystal form I; Experimental XRD result after crystal slurrying competition ([1]; ethanol/water (v/v = 1:1), 3 days): Crystal form I
Nc1ncnc2c1c(-c1ccc(Oc3ccccc3)cc1)nn2C1CCN(C2CN(C3CN(c4ccc5c(c4)C(=O)N(C4CCC(=O)NC4=O)C5=O)C3)C2)CC1 (stereo not shown) [5-[3-[3-[4-[4-amino-3-(4-phenoxyphenyl)pyrazolo[3,4-d]pyrimidin-1-yl]-1-piperidyl]azetidin-1-yl]azetidin-1-yl]-2-(2,6-dioxo-3-piperidyl)isoindoline-1,3-dione] | – | – | – | – | – | – | Experimental XRD result after crystal slurrying competition ([1]; isopropyl acetate, 2 days): Crystal form III; Experimental XRD result after crystal slurrying competition ([1]; water/acetonitrile (v/v = 1:1), 2 days): Crystal form III
Nc1ncnc2c1c(-c1ccc(Oc3ccccc3)cc1)nn2C1CCN(C2CN(C3CN(c4ccc5c(c4)C(=O)N(C4CCC(=O)NC4=O)C5=O)C3)C2)CC1 (stereo not shown) [Compound 1, 5-[3-[3-[4-[4-amino-3-(4-phenoxyphenyl)pyrazolo[3,4-d]pyrimidin-1-yl]-1-piperidyl]azetidin-1-yl]azetidin-1-yl]-2-(2,6-dioxo-3-piperidyl)isoindoline-1,3-dione] | – | – | – | – | – | – | solubility in water ([2]; conclusion in words): a certain level of solubility; oral bioavailability in dogs ([3]; intragastric vs intravenous, conclusion in words): a certain level of oral bioavailability
Nc1ncnc2c1c(-c1ccc(Oc3ccccc3)cc1)nn2C1CCN(C2CN(C3CN(c4ccc5c(c4)C(=O)N(C4CCC(=O)NC4=O)C5=O)C3)C2)CC1.O=C(O)C(=O)O (stereo not shown) [Compound 9, 5-[3-[3-[4-[4-amino-3-(4-phenoxyphenyl)pyrazolo[3,4-d]pyrimidin-1-yl]-1-piperidyl]azetidin-1-yl]azetidin-1-yl]-2-(2,6-dioxo-3-piperidyl)isoindoline-1,3-dione oxalate] | relatively good chemical stability | more than 15 times | 346 | Yes | more than 2 times | 79.4 ± 20 | Purity by HPLC, 0 day [4]: 98.67%; Purity by HPLC, 92.5% RH 30 days [4]: 98.28%
Nc1ncnc2c1c(-c1ccc(Oc3ccccc3)cc1)nn2C1CCN(C2CN(C3CN(c4ccc5c(c4)C(=O)N(C4CCC(=O)NC4=O)C5=O)C3)C2)CC1.O=C(O)C[C@H](O)C(=O)O [Compound 4, 5-[3-[3-[4-[4-amino-3-(4-phenoxyphenyl)pyrazolo[3,4-d]pyrimidin-1-yl]-1-piperidyl]azetidin-1-yl]azetidin-1-yl]-2-(2,6-dioxo-3-piperidyl)isoindoline-1,3-dione L-malate] | – | more than 15 times | 158 | – | – | – | –
Nc1ncnc2c1c(-c1ccc(Oc3ccccc3)cc1)nn2C1CCN(C2CN(C3CN(c4ccc5c(c4)C(=O)N(C4CCC(=O)NC4=O)C5=O)C3)C2)CC1 (stereo not shown) [crystal form III of compound 1, 5-[3-[3-[4-[4-amino-3-(4-phenoxyphenyl)pyrazolo[3,4-d]pyrimidin-1-yl]-1-piperidyl]azetidin-1-yl]azetidin-1-yl]-2-(2,6-dioxo-3-piperidyl)isoindoline-1,3-dione] | – | – | – | – | – | – | Purity by HPLC, 0 day [4, 6]: 99.41%; Purity by HPLC, 92.5% RH 30 days [4, 6]: 99.30%; Purity by HPLC, 40° C. 30 days [4, 6]: 99.28%; relative stability of crystal forms from competition experiments [1]: most stable crystal form
Nc1ncnc2c1c(-c1ccc(Oc3ccccc3)cc1)nn2C1CCN(C2CN(C3CN(c4ccc5c(c4)C(=O)N(C4CCC(=O)NC4=O)C5=O)C3)C2)CC1.O=C(O)C(O)C(O)C(=O)O [Compound 7, 5-[3-[3-[4-[4-amino-3-(4-phenoxyphenyl)pyrazolo[3,4-d]pyrimidin-1-yl]-1-piperidyl]azetidin-1-yl]azetidin-1-yl]-2-(2,6-dioxo-3-piperidyl)isoindoline-1,3-dione L-tartrate] | – | more than 15 times | 143 | Yes | more than 2 times | 95.5 ± 65 | –
Nc1ncnc2c1c(-c1ccc(Oc3ccccc3)cc1)nn2C1CCN(C2CN(C3CN(c4ccc5c(c4)C(=O)N(C4CCC(=O)NC4=O)C5=O)C3)C2)CC1.O=C(O)CC(O)(CC(=O)O)C(=O)O (stereo not shown) [Compound 5, 5-[3-[3-[4-[4-amino-3-(4-phenoxyphenyl)pyrazolo[3,4-d]pyrimidin-1-yl]-1-piperidyl]azetidin-1-yl]azetidin-1-yl]-2-(2,6-dioxo-3-piperidyl)isoindoline-1,3-dione citrate] | relatively good chemical stability | more than 15 times | 166 | Yes | more than 2 times | 59.5 ± 21 | Purity by HPLC, 0 day [4]: 98.44%; Purity by HPLC, 92.5% RH 30 days [4]: 98.05%
Nc1ncnc2c1c(-c1ccc(Oc3ccccc3)cc1)nn2C1CCN(C2CN(C3CN(c4ccc5c(c4)C(=O)N(C4CCC(=O)NC4=O)C5=O)C3)C2)CC1.O=C(O)/C=C\C(=O)O.O=C(O)/C=C\C(=O)O (stereo not shown) [amorphous form of compound 3, 5-[3-[3-[4-[4-amino-3-(4-phenoxyphenyl)pyrazolo[3,4-d]pyrimidin-1-yl]-1-piperidyl]azetidin-1-yl]azetidin-1-yl]-2-(2,6-dioxo-3-piperidyl)isoindoline-1,3-dione dimaleate] | – | – | – | – | – | – | stability of crystal form [5]: relatively good stability
